Patent publication US10639284B2, “Immunomodulator compounds” (CHEMOCENTRYX, INC., priority 2016, dated 2020)

The compounds below were run against human PD-L1 / Human PD-1 (Homo sapiens (Human), UniProt Q9NZQ7) (assay: Enzyme-Linked Immunosorbent Assay (ELISA), PD-1/PD-L1 binding). Details: Table 3; plate-coated human PD-L1, biotinylated human PD-1; read-out: ELISA IC50.
Sequence of human PD-L1 / Human PD-1 (Q9NZQ7 19-239): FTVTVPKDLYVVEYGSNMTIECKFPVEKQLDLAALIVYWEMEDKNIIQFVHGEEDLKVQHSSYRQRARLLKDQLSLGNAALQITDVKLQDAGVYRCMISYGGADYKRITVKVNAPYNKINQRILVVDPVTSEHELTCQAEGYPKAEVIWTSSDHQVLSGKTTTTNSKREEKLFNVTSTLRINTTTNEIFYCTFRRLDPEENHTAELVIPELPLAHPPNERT
Method in brief: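 Human PD-L1 coated at 1 μg/mL overnight at 4° C; samples diluted 1:5 and incubated with human PD-1 and biotin (0.3 μg/mL) for 1 h at 37° C. Bound PD-1 detected with streptavidin-HRP and TMB (20 min, 37° C), acid-stopped, absorbance at 450 nm.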
`N#Cc1cncc(COc2cc(O[C@H]3CCc4c(-c5ccccc5F)cccc43)c(Cl)cc2CN[C@@H](CNC(=N)N)C(=O)O)c1` [Example 3.096] gave an IC50 of 100 to 500 nM. For `N#Cc1cncc(COc2cc(O[C@H]3CCc4c(-c5ccccc5F)cccc43)c(Cl)cc2CNc2cncc(CO)c2)c1` [Example 3.097], the IC50 was 500 to 20000 nM. Work on `N#Cc1cncc(COc2cc(O[C@H]3CCc4c(-c5ccccc5F)cccc43)c(Cl)cc2CN[C@H](CCCNC(=N)N)C(=O)O)c1` [Example 3.098] yielded an IC50 of 100 to 500 nM. `CC(C)[C@@H](NCc1cc(Cl)c(O[C@H]2CCc3c(-c4ccccc4F)cccc32)cc1OCc1cncc(C#N)c1)C(=O)O` [Example 3.099] showed an IC50 of 100 to 500 nM. Work on `O=C(O)[C@H](CO)NCc1cc(Cl)c(O[C@H]2CCc3c(-c4ccccc4F)cccc32)cc1OCc1cncc(Br)c1` [Example 3.100] yielded an IC50 of less than 100 nM. `Cn1nnc(-c2cncc(COc3cc(O[C@H]4CCc5c(-c6ccccc6F)cccc54)c(Cl)cc3CN[C@@H](CO)C(=O)O)c2)n1` [Example 3.101] gave an IC50 of 100 to 500 nM. Compound `N#Cc1cncc(COc2cc(O[C@H]3CCc4c(-c5ccccc5F)cccc43)c(Cl)cc2CN[C@H](Cc2ccc(O)cc2)C(=O)O)c1` [Example 3.102] has an IC50 of 500 to 20000 nM. Work on `N#Cc1cncc(COc2cc(O[C@H]3CCc4c(-c5ccccc5F)cccc43)c(Cl)cc2CN[C@@H](Cc2c[nH]cn2)C(=O)O)c1` [Example 3.103] yielded an IC50 of 100 to 500 nM. With `N#Cc1cncc(COc2cc(O[C@H]3CCc4c(-c5ccccc5F)cccc43)c(Cl)cc2CN[C@H](CC(N)=O)C(=O)O)c1` [Example 3.104] the IC50 was less than 100 nM. Work on `N#Cc1cncc(COc2cc(O[C@H]3CCc4c(-c5ccccc5F)cccc43)c(Cl)cc2CN[C@@H](CC(=O)O)C(=O)O)c1` [Example 3.105] yielded an IC50 of 100 to 500 nM. `Cn1nccc1-c1cncc(COc2cc(O[C@H]3CCc4c(-c5ccccc5F)cccc43)c(Cl)cc2CN[C@@H](CO)C(=O)O)c1` [Example 3.106] gave an IC50 of 100 to 500 nM. For `N#Cc1cncc(COc2cc(O[C@H]3CCc4c(-c5ccc6c(c5)OC(F)(F)O6)cccc43)c(Cl)cc2CN[C@@H](CO)C(=O)O)c1` [Example 3.107], the IC50 was 500 to 20000 nM. With `O=C(O)[C@H](CO)NCc1cc(Cl)c(O[C@H]2CCc3c(-c4ccccc4F)cccc32)cc1OCc1cncc(-c2nn[nH]n2)c1` [Example 3.108] the IC50 was 100 to 500 nM. Work on `COC(=O)[C@H](CO)NC(C)c1cc(Cl)c(O[C@H]2CCc3c(-c4ccccc4F)cccc32)cc1OCc1cncc(C#N)c1` (some centres unmarked) [Example 3.109] yielded an IC50 of 500 to 20000 nM. `N#Cc1cncc(COc2cc(O[C@H]3CCc4c(-c5ccc6c(c5F)OCO6)cccc43)c(Cl)cc2CN[C@@H](CO)C(=O)O)c1` [Example 3.110] was tested, and the IC50 was less than 100 nM. `CC(N[C@@H](CO)C(=O)O)c1cc(Cl)c(O[C@H]2CCc3c(-c4ccc(O)cc4)cccc32)cc1OCc1cncc(C#N)c1` (some centres unmarked) [Example 3.111] was tested, and the IC50 was 500 to 20000 nM. `CC(N[C@@H](CO)C(=O)O)c1cc(Cl)c(O[C@H]2CCc3c(C4=CCCC4)cccc32)cc1OCc1cncc(C#N)c1` (some centres unmarked) [Example 3.112] gave an IC50 of 100 to 500 nM. `CC(N[C@@H](CO)C(=O)O)c1cc(Cl)c(O[C@H]2CCc3c(-c4cccc5c4OCCO5)cccc32)cc1OCc1cncc(C#N)c1` (some centres unmarked) [Example 3.113] gave an IC50 of 500 to 20000 nM. In the case of `N#Cc1cncc(COc2cc(O[C@H]3CCc4c(-c5ccccc5F)cccc43)c(Cl)cc2CN2CC(O)C2)c1` [Example 3.114], the IC50 is reported as 500 to 20000 nM. Compound `COCc1ccccc1-c1cccc2c1CC[C@@H]2Oc1cc(OCc2cncc(C#N)c2)c(CN[C@@H](CO)C(=O)O)cc1Cl` [Example 3.115] has an IC50 of 500 to 20000 nM. `C[C@@H](O)[C@@H](CC(=O)O)NCc1cc(Cl)c(O[C@H]2CCc3c(-c4ccccc4F)cccc32)cc1OCc1cncc(C#N)c1` [Example 3.116] gave an IC50 of 500 to 20000 nM. `N#Cc1cncc(COc2cc(O[C@H]3CCc4c(C5=CCCCC5)cccc43)c(Cl)cc2CN[C@@H](CO)C(=O)O)c1` [Example 3.117] was tested, and the IC50 was less than 100 nM. With `N#Cc1cncc(COc2cc(O[C@H]3CCc4c(-c5cccc(O)c5)cccc43)c(Cl)cc2CN[C@@H](CO)C(=O)O)c1` [Example 3.118] the IC50 was less than 100 nM. In the case of `C[C@@](CO)(NCc1cc(Cl)c(O[C@@H]2CCc3c(-c4ccccc4F)cccc32)cc1OCc1cncc(C#N)c1)C(=O)O` [Example 3.119], the IC50 is reported as less than 100 nM. With `N#Cc1cncc(COc2cc(O[C@@H]3CCc4c(-c5ccccc5F)cccc43)c(Cl)cc2CN[C@@H](CO)C(=O)O)c1` [Example 3.120] the IC50 was less than 100 nM. Work on `N#Cc1cncc(COc2cc(O[C@H]3CCc4c(-c5cccc(CO)c5)cccc43)c(Cl)cc2CN[C@@H](CO)C(=O)O)c1` [Example 3.121] yielded an IC50 of 500 to 20000 nM. `N#Cc1cncc(COc2cc(O[C@H]3CCc4c(-c5ccc6c(c5)OCO6)cccc43)c(Cl)cc2CN[C@@H](CO)C(=O)O)c1` [Example 3.122] gave an IC50 of less than 100 nM. Work on `N#Cc1cncc(COc2cc(O[C@H]3CCc4c(-c5ccc(CO)cc5)cccc43)c(Cl)cc2CN[C@@H](CO)C(=O)O)c1` [Example 3.123] yielded an IC50 of 500 to 20000 nM. In the case of `COc1cccc(-c2cccc3c2CC[C@@H]3Oc2cc(OCc3cncc(C#N)c3)c(CN3CCC(O)C(CO)C3)cc2Cl)c1Cl` (some centres unmarked) [Example 3.124], the IC50 is reported as 100 to 500 nM. For `N#Cc1cncc(COc2cc(O[C@H]3CCc4c(-c5ccc6ccccc6c5)cccc43)c(Cl)cc2CN[C@@H](CO)C(=O)O)c1` [Example 3.125], the IC50 was 500 to 20000 nM. With `N#Cc1cncc(COc2cc(O[C@H]3CCc4c(-c5cccc6ccccc56)cccc43)c(Cl)cc2CN[C@@H](CO)C(=O)O)c1` [Example 3.126] the IC50 was 100 to 500 nM. Work on `N#Cc1cncc(COc2cc(O[C@H]3CCc4c(-c5ccccc5CO)cccc43)c(Cl)cc2CN[C@@H](CO)C(=O)O)c1` [Example 3.127] yielded an IC50 of less than 100 nM. In the case of `N#Cc1cncc(COc2cc(O[C@H]3CCc4c(-c5ccccc5F)cccc43)c(Cl)cc2CNCCO)c1` [Example 3.128], the IC50 is reported as less than 100 nM. For `N#Cc1cncc(COc2cc(O[C@H]3CCc4c(-c5ccccc5F)cccc43)c(Cl)cc2CNC(CO)CO)c1` [Example 3.129], the IC50 was less than 100 nM. Compound `N#Cc1cncc(COc2cc(O[C@H]3CCc4c(-c5ccccc5F)cccc43)c(Cl)cc2CNC(CO)(CO)CO)c1` [Example 3.130] has an IC50 of less than 100 nM. `N#Cc1cncc(COc2cc(O[C@H]3CCc4c(-c5ccccc5F)cccc43)c(Cl)cc2CN2CC[C@H](C(=O)O)C2)c1` [Example 3.131] gave an IC50 of less than 100 nM. Work on `N#Cc1cncc(COc2cc(O[C@H]3CCc4c(-c5ccccc5F)cccc43)c(Cl)cc2CN2CC[C@@H](C(=O)O)C2)c1` [Example 3.132] yielded an IC50 of less than 100 nM. With `CCOc1cc(NC2CCc3c(-c4ccccc4F)cccc32)c(Cl)cc1CN[C@@H](CO)C(=O)O` (some centres unmarked) [Example 3.133] the IC50 was 100 to 500 nM. `CC(O)C(NCc1cc(Cl)c(O[C@H]2CCc3c(-c4ccccc4F)cccc32)cc1OCc1cncc(C#N)c1)c1nnn[nH]1` (some centres unmarked) [Example 3.134] showed an IC50 of less than 100 nM. For `C[C@@H](O)[C@H](NCc1cc(Cl)c(O[C@H]2CCc3c(-c4ccccc4F)cccc32)cc1OCc1cncc(C#N)c1)C(=O)OC(C)(C)C` [Example 3.135], the IC50 was 500 to 20000 nM. `CC(C)(C)OC(=O)[C@H](CO)NCc1cc(Cl)c(O[C@H]2CCc3c(-c4ccccc4F)cccc32)cc1OCc1cncc(C#N)c1` [Example 3.136] was tested, and the IC50 was 500 to 20000 nM.
